In ChEMBL document CHEMBL5537119 (Eur J Med Chem, 2024):

Assays:
Histone deacetylase 2 = Histone deacetylase 2 (Homo sapiens, UniProt Q92769); experiment: Inhibition of human recombinant HDAC2 using Boc-Lys(Ac)-AMC as substrate preincubated for 5 mins followed by substrate addition and measured after 90 mins by fluorescence based microplate reader analysis
Histone deacetylase 8 = target: T1, Histone deacetylase 8 (Homo sapiens, UniProt Q9BY41); experiment: Inhibition of human recombinant HDAC8 using Boc-Lys-(Tfa)-AMC as substrate preincubated for 5 mins followed by substrate addition and measured after 90 mins by fluorescence based microplate reader analysis
T1 sequence (Q9BY41 whole entry): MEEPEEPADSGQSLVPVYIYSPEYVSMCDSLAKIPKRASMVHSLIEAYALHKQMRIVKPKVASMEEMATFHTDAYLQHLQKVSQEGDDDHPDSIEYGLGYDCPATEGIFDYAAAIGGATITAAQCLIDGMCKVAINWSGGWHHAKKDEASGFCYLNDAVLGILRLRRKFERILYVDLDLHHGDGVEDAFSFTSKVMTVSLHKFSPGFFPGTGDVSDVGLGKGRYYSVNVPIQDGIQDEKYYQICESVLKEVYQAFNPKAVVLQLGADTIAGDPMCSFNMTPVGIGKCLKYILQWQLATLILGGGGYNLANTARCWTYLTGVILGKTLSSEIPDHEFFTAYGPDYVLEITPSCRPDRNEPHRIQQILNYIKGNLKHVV

THP-1 [1] = experiment: Inhibition of Class IIa/8 HDAC in human THP-1 cells at 100 uM preincubated for 18 hrs followed by substrate addition and measured after 3 hrs by fluorescence based microplate reader assay relative to control; type: cell-based; settings: time 21.0 hrs, values are per cent of control
THP-1 [2] = experiment: Inhibition of Class I/IIb HDAC in human THP-1 cells at 100 uM preincubated for 18 hrs followed by substrate addition and measured after 3 hrs by fluorescence based microplate reader assay relative to control; type: cell-based; settings: time 21.0 hrs
[3] = Inhibition of Class I/IIb HDAC in human THP-1 cells preincubated for 18 hrs followed by substrate addition and measured after 3 hrs by fluorescence based microplate reader assay; type: cell-based
[4] = Inhibition of Class IIa/8 HDAC in human THP-1 cells preincubated for 18 hrs followed by substrate addition and measured after 3 hrs by fluorescence based microplate reader assay; type: cell-based
Histone deacetylase 1 = Histone deacetylase 1 (Homo sapiens, UniProt Q13547); experiment: Inhibition of HDAC1 (unknown origin)
Histone deacetylase 3 = Histone deacetylase 3 (Homo sapiens, UniProt O15379); experiment: Inhibition of HDAC3 (unknown origin)
Histone deacetylase 5 = Histone deacetylase 5 (Homo sapiens, UniProt Q9UQL6); experiment: Inhibition of HDAC5 (unknown origin)
Histone deacetylase 7 = target: T2, Histone deacetylase 7 (Homo sapiens, UniProt Q8WUI4); experiment: Inhibition of HDAC7 (unknown origin)
T2 sequence (Q8WUI4 whole entry): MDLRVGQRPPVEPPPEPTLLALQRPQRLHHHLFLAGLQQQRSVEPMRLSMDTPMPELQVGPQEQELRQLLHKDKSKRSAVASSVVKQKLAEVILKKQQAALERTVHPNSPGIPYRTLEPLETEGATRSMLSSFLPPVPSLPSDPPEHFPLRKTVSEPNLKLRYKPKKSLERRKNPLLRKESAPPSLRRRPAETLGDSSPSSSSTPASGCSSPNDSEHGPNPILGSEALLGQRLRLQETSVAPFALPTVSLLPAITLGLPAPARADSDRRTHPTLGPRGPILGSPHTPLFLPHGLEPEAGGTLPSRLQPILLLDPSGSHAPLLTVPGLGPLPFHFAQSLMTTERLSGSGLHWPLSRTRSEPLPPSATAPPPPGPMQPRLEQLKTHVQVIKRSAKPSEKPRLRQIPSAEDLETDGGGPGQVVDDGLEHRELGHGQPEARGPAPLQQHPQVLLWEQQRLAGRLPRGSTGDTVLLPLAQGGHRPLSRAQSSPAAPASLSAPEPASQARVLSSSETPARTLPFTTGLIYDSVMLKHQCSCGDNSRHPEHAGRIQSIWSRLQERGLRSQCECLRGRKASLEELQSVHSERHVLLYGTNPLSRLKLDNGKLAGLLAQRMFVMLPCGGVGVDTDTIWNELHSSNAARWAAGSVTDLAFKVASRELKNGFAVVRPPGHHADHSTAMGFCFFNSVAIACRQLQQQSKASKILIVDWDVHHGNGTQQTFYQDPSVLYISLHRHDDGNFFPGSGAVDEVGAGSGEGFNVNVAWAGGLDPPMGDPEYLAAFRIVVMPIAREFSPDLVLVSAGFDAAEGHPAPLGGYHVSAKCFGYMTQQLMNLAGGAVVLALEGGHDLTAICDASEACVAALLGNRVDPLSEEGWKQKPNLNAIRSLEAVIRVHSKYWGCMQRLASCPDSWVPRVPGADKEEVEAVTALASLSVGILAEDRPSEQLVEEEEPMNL

Histone deacetylase 11 = target: T3, Histone deacetylase 11 (Homo sapiens, UniProt Q96DB2); experiment: Inhibition of HDAC11 (unknown origin)
T3 sequence (Q96DB2 whole entry): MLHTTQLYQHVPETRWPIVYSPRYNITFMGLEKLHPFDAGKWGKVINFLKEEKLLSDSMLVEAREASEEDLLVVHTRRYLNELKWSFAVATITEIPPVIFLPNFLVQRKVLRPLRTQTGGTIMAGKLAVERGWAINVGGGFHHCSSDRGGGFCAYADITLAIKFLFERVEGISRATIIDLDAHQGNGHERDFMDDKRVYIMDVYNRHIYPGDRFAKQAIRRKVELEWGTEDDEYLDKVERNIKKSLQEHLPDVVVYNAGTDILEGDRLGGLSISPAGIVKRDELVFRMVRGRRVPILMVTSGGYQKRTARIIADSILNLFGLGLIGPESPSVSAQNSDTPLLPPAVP

THP-1 [5] = experiment: Antiproliferative activity against human THP-1 cells assessed as reduction in cell viability at 100 uM incubated for 72 hrs by MTT assay relative to control; type: functional
THP-1 [6] = experiment: cells; settings: Homo sapiens, THP-1, 72 h
Description: Antiproliferative activity against human THP-1 cells assessed as inhibition of cell growth incubated for 72 hrs by MTT assay

Histone deacetylase 3, sequence (O15379 whole entry): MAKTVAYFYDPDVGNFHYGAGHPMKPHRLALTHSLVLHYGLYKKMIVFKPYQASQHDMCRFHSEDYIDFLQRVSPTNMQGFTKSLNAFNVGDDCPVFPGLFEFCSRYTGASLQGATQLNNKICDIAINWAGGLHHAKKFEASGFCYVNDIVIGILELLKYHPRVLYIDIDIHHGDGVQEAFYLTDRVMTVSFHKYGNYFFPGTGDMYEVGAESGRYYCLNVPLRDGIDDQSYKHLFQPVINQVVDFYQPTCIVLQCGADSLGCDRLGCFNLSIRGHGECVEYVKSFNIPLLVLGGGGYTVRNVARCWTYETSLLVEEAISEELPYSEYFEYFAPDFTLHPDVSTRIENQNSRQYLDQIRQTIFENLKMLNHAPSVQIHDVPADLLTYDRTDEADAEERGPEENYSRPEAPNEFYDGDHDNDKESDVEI
Histone deacetylase 2, sequence (Q92769 whole entry): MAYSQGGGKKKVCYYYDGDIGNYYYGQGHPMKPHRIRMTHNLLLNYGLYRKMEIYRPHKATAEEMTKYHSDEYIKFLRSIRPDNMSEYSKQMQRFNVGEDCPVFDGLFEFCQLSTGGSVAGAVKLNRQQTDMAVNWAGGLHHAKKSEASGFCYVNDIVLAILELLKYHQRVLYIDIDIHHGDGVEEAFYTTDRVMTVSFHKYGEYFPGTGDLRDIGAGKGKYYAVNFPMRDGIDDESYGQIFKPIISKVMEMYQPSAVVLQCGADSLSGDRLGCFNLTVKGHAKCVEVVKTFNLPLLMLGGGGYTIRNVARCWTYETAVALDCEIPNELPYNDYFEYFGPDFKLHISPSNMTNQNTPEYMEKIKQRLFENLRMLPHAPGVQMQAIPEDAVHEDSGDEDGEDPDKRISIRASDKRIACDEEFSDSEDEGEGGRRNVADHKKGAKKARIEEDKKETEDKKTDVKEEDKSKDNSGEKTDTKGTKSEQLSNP
Histone deacetylase 1, sequence (Q13547 whole entry): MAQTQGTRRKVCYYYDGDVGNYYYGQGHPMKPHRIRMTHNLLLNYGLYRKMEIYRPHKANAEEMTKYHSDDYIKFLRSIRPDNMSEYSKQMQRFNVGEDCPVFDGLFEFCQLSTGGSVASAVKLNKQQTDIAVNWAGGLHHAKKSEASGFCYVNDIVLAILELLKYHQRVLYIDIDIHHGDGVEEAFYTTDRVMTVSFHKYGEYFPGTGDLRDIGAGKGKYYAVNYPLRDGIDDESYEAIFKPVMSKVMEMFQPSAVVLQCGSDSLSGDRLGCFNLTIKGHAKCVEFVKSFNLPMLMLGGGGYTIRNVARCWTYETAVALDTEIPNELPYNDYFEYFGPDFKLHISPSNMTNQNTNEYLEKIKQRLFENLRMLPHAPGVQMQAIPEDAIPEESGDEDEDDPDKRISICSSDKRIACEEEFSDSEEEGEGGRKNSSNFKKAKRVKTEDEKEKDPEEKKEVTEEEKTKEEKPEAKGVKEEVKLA
Histone deacetylase 5, sequence (Q9UQL6 whole entry): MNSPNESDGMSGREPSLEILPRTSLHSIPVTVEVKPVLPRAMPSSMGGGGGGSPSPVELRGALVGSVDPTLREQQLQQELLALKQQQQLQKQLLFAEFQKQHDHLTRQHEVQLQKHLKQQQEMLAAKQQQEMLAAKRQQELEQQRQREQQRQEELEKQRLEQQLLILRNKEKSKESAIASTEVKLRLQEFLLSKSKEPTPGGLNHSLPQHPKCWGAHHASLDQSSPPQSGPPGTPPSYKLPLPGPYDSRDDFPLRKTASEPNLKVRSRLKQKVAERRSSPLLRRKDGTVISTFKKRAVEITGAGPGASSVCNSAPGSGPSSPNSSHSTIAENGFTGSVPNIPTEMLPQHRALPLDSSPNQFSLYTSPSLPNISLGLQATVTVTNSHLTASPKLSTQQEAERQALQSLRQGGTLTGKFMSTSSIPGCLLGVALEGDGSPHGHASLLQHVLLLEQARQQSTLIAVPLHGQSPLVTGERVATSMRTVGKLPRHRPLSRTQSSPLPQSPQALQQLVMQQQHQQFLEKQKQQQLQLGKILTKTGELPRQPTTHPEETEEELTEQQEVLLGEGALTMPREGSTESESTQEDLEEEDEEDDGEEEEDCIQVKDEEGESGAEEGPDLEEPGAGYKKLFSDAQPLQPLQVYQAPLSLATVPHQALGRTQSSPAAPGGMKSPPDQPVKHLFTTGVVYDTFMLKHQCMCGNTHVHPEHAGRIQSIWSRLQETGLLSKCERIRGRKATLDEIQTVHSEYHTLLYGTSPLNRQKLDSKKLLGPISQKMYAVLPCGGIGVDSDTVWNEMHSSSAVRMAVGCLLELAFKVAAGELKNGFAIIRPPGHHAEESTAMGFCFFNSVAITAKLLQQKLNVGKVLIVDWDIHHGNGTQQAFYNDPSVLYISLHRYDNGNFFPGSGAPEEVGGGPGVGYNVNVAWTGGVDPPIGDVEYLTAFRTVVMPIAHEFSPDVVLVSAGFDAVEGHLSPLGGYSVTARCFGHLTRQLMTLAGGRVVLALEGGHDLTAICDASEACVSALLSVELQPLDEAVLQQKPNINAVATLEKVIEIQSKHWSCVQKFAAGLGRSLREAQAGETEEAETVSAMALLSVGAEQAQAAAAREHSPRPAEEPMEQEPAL

Q: Which IC50 (Histone deacetylase 2) does the source give for O=C(NOCc1coc(-c2ccccc2)n1)c1ccc(-c2noc(C(F)(F)F)n2)cc1 here?
A: > 100 µM

Q: What about the IC50 (Histone deacetylase 8) of the same compound?
A: > 100 µM

Q: And the residual activity (THP-1 [1])?
A: 76%

Q: And the inhibition (THP-1 [2])?
A: 0%

Q: And the IC50 [3]?
A: > 100 µM

Q: And the IC50 [4]?
A: 38.1 µM

Q: What about the IC50 (Histone deacetylase 1) of the same compound?
A: > 100 µM

Q: And the IC50 (Histone deacetylase 3)?
A: > 100 µM

Q: And the IC50 (Histone deacetylase 5)?
A: 1.09 µM

Q: What about the IC50 (Histone deacetylase 7) of the same compound?
A: 1.97 µM

Q: What about the IC50 (Histone deacetylase 11) of the same compound?
A: > 100 µM

Q: What about the Activity (THP-1 [5]) of the same compound?
A: 47%

Q: What about the IC50 (THP-1 [6]) of the same compound?
A: ~100 µM
